In ChEMBL document CHEMBL1201862, “PubChem BioAssay data set” (2004):
Where “and” joins values, the source holds several entries; their conditions need not be identical. Equal values may be shown once.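 Briefly, cells in 96-well plates were exposed to five compound concentrations for 48 h, and endpoints were estimated by linear interpolation. At the GI50, growth is halved.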 Calls of active or inactive are those of the source. Cut-off read from the data, not from the text of the source: active = GI50 up to about 1.1 µM and inactive = higher. Starred links: 1 amine or outer side, 2 acyl side, 3 side chain; linkers in the order of their positions; H or OH if unused. Positions of bridges follow the written chain, without caps; N, C: chain ends. Non-standard residues stand in square brackets, D forms with d. Residues, ends and D or L forms follow the SMILES beside them. Chains are numbered I, II in the order given. Actinocin(9to1) = Cc1c2oc3c(C)ccc(C(=O)[*:1])c3nc-2c(C(=O)[*:2])c(N)c1=O; NMeY = CN[CH](Cc1ccc(O)cc1)C(=O)O; Sar = CNCC(=O)O

Columns and labels:
Assay in all cases: growth of human tumour cells (NCI), 48 h
HCT-15 = tested on: HCT-15
HOP-62 = tested on: HOP-62
CAKI-1 = tested on: CAKI-1
KM12 = tested on: KM12
UACC-62 = tested on: UACC-62
SF-295 = tested on: SF-295
HCT-116 = tested on: HCT-116
SNB-19 = tested on: SNB-19
U-251 = tested on: U-251
RXF 393 = tested on: RXF 393
UACC-257 = tested on: UACC-257
SW-620 = tested on: SW-620
MDA-MB-435 = tested on: MDA-MB-435
RPMI-8226 = tested on: RPMI-8226
A549 = tested on: A549
NCI/ADR-RES = tested on: NCI/ADR-RES
Hs-578T = tested on: Hs-578T
NCI-H226 = tested on: NCI-H226
HL-60 = tested on: HL-60
EKVX = tested on: EKVX
PC-3 = tested on: PC-3
OVCAR-4 = tested on: OVCAR-4
MDA-N = tested on: MDA-N
IGROV-1 = tested on: IGROV-1
MCF7 = tested on: MCF7
NCI-H522 = tested on: NCI-H522
SK-MEL-5 = tested on: SK-MEL-5
M14 = tested on: M14
SF-539 = tested on: SF-539
SR = tested on: SR
LOX IMVI = tested on: LOX IMVI
CCRF-CEM = tested on: CCRF-CEM
SK-OV-3 = tested on: SK-OV-3
SK-MEL-28 = tested on: SK-MEL-28
SN12C = tested on: SN12C
HT-29 = tested on: HT-29
HOP-92 = tested on: HOP-92
MDA-MB-231 = tested on: MDA-MB-231
SF-268 = tested on: SF-268
SK-MEL-2 = tested on: SK-MEL-2
BT-549 = tested on: BT-549
NCI-H23 = tested on: NCI-H23
HCC 2998 = tested on: HCC 2998
SNB-75 = tested on: SNB-75
K562 = tested on: K562
ACHN = tested on: ACHN
MOLT-4 = tested on: MOLT-4
UO-31 = tested on: UO-31
NCI-H460 = tested on: NCI-H460
COLO 205 = tested on: COLO 205
786-0 = tested on: 786-0
OVCAR-3 = tested on: OVCAR-3
OVCAR-5 = tested on: OVCAR-5
TK-10 = tested on: TK-10
OVCAR-8 = tested on: OVCAR-8
Malme-3M = tested on: Malme-3M
DU-145 = tested on: DU-145
A498 = tested on: A498
T47D = tested on: T47D

With `O=C1C(NS(=O)(=O)c2ccccc2)=C(n2cnc3ccccc32)C(=O)c2ccccc21` the GI50 (HCT-15) was over 100 µM, the GI50 (HOP-62) was 32.4 µM (inactive) and the GI50 (CAKI-1) was > 100 µM (inactive). For the same molecule, the GI50 (KM12) was > 100 µM (inactive), the GI50 (UACC-62) was 47.3 µM (inactive) and the GI50 (SF-295) was 57.4 µM (inactive). The GI50 (HCT-116) was > 100 µM (inactive), the GI50 (SNB-19) was 38.4 µM (inactive) and the GI50 (U-251) was 46.1 µM (inactive). For the same molecule, the GI50 (RXF 393) was 16 µM (inactive), the GI50 (UACC-257) was > 100 µM (inactive) and the GI50 (SW-620) was > 100 µM (inactive). For the same molecule, the GI50 (MDA-MB-435) was > 100 µM (inactive), the GI50 (RPMI-8226) was 50.5 µM (inactive) and the GI50 (A549) was > 100 µM (inactive). The GI50 (NCI/ADR-RES) was > 100 µM (inactive), the GI50 (Hs-578T) was 48.6 µM (inactive) and the GI50 (NCI-H226) was > 100 µM (inactive). For the same molecule, the GI50 (HL-60) was > 100 µM (inactive), the GI50 (EKVX) was > 100 µM (inactive) and the GI50 (PC-3) was > 100 µM (inactive). The GI50 (OVCAR-4) was 34.5 µM (inactive), the GI50 (MDA-N) was > 100 µM (inactive) and the GI50 (IGROV-1) was 52.8 µM (inactive). For the same molecule, the GI50 (MCF7) was > 100 µM (inactive), the GI50 (NCI-H522) was 187 nM (active) and the GI50 (SK-MEL-5) was > 100 µM (inactive). For the same molecule, the GI50 (M14) was > 100 µM (inactive), the GI50 (SF-539) was > 100 µM (inactive) and the GI50 (SR) was > 100 µM (inactive). The GI50 (LOX IMVI) was > 100 µM (inactive), the GI50 (CCRF-CEM) was 85.9 µM (inactive) and the GI50 (SK-OV-3) was > 100 µM (inactive). The GI50 (SK-MEL-28) was > 100 µM (inactive), the GI50 (SN12C) was > 100 µM (inactive) and the GI50 (HT-29) was > 100 µM (inactive). The GI50 (HOP-92) was 41.4 µM (inactive), the GI50 (MDA-MB-231) was 48.9 µM (inactive) and the GI50 (SF-268) was 86.3 µM (inactive). The GI50 (SK-MEL-2) was > 100 µM (inactive), the GI50 (BT-549) was 4.66 µM (inactive) and the GI50 (NCI-H23) was 58.2 µM (inactive). For the same molecule, the GI50 (HCC 2998) was > 100 µM (inactive), the GI50 (SNB-75) was 30.3 µM (inactive) and the GI50 (K562) was > 100 µM (inactive). For the same molecule, the GI50 (ACHN) was > 100 µM (inactive), the GI50 (MOLT-4) was > 100 µM (inactive) and the GI50 (UO-31) was 75.3 µM (inactive). The GI50 (NCI-H460) was > 100 µM (inactive), the GI50 (COLO 205) was > 100 µM (inactive) and the GI50 (786-0) was 60.4 µM (inactive). The GI50 (OVCAR-3) was > 100 µM (inactive), the GI50 (OVCAR-5) was > 100 µM (inactive) and the GI50 (TK-10) was 89.3 µM (inactive). The GI50 (OVCAR-8) was > 100 µM (inactive), the GI50 (Malme-3M) was > 100 µM (inactive) and the GI50 (DU-145) was > 100 µM (inactive).

For `COC(C)(C)C1(O)CCC(C)CC1=O` (stereo not given), the GI50 (CAKI-1) was > 100 µM (inactive), the GI50 (SNB-19) was > 100 µM (inactive) and the GI50 (U-251) was > 100 µM (inactive). The GI50 (RXF 393) was > 100 µM (inactive), the GI50 (Hs-578T) was > 100 µM (inactive) and the GI50 (HL-60) was 85.7 µM (inactive). The GI50 (PC-3) was > 100 µM (inactive), the GI50 (MDA-N) was > 100 µM (inactive) and the GI50 (IGROV-1) was > 100 µM (inactive). The GI50 (SK-MEL-5) was > 100 µM (inactive), the GI50 (SR) was > 100 µM (inactive) and the GI50 (SK-OV-3) was > 100 µM (inactive). The GI50 (HT-29) was > 100 µM (inactive), the GI50 (HOP-92) was > 100 µM (inactive) and the GI50 (BT-549) was > 100 µM (inactive). For the same molecule, the GI50 (HCC 2998) was > 100 µM (inactive), the GI50 (MOLT-4) was > 100 µM (inactive) and the GI50 (UO-31) was > 100 µM (inactive). For the same molecule, the GI50 (NCI-H460) was > 100 µM (inactive), the GI50 (COLO 205) was > 100 µM (inactive) and the GI50 (786-0) was > 100 µM (inactive). The GI50 (OVCAR-3) was > 100 µM (inactive) and the GI50 (OVCAR-8) was > 100 µM (inactive).

In the case of `O=C(O)c1ccccc1/N=N\c1c(O)c(S(=O)(=O)O)cc2cc(S(=O)(=O)O)ccc12`, the GI50 (HCT-116) is reported as 1.63 µM (inactive), the GI50 (SNB-19) is reported as 2.81 µM (inactive) and the GI50 (U-251) is reported as 1.48 µM (inactive). For the same molecule, the GI50 (SW-620) was 1.85 µM (inactive), the GI50 (MDA-MB-435) was 2.65 µM (inactive) and the GI50 (RPMI-8226) was 1.35 µM (inactive). The GI50 (A549) was 1.82 µM (inactive), the GI50 (A498) was > 100 µM (inactive) and the GI50 (NCI/ADR-RES) was 1.06 µM (active). The GI50 (Hs-578T) was 1.97 µM (inactive), the GI50 (NCI-H226) was 0.0239 µM (active) and the GI50 (HL-60) was < 0.01 µM (active). The GI50 (OVCAR-4) was 0.0962 µM (active), the GI50 (MDA-N) was 2.41 µM (inactive) and the GI50 (MCF7) was > 100 µM (inactive). The GI50 (NCI-H522) was 23.1 nM (active), the GI50 (SK-MEL-5) was 4.72 µM (inactive) and the GI50 (M14) was 3.83 µM (inactive). The GI50 (LOX IMVI) was > 100 µM (inactive), the GI50 (SF-268) was 1.8 µM (inactive) and the GI50 (BT-549) was 0.201 µM (active). For the same molecule, the GI50 (HCC 2998) was > 100 µM (inactive), the GI50 (NCI-H460) was > 100 µM (inactive) and the GI50 (COLO 205) was 1.2 µM (inactive). The GI50 (Malme-3M) was 0.0711 µM (active).

With `CCN(CC)C(=S)SS(=O)(=O)c1ccc([N+](=O)[O-])cc1` the GI50 (CAKI-1) was 18.8 µM (inactive), the GI50 (UACC-62) was 27.4 µM (inactive) and the GI50 (SNB-19) was 76.7 µM (inactive). The GI50 (U-251) was 14.5 µM (inactive), the GI50 (T47D) was 43.2 µM (inactive) and the GI50 (RPMI-8226) was 12.8 µM (inactive). The GI50 (A549) was 1.18 µM (inactive), the GI50 (A498) was > 100 µM (inactive) and the GI50 (EKVX) was > 100 µM (inactive). The GI50 (NCI-H522) was 28.2 nM (active), the GI50 (SK-MEL-5) was 2.77 µM (inactive) and the GI50 (SF-539) was 21.2 µM (inactive). For the same molecule, the GI50 (SR) was 0.148 µM (active), the GI50 (LOX IMVI) was 17.5 µM (inactive) and the GI50 (SK-OV-3) was > 100 µM (inactive). For the same molecule, the GI50 (SK-MEL-2) was 48.3 µM (inactive), the GI50 (BT-549) was 36.8 µM (inactive) and the GI50 (NCI-H23) was 56.8 µM (inactive). The GI50 (K562) was 19.4 µM (inactive), the GI50 (UO-31) was 21.7 µM (inactive) and the GI50 (NCI-H460) was 96.2 µM (inactive). For the same molecule, the GI50 (COLO 205) was 19.9 µM (inactive), the GI50 (786-0) was 16.7 µM (inactive) and the GI50 (OVCAR-5) was > 100 µM (inactive). For the same molecule, the GI50 (OVCAR-8) was 20.4 µM (inactive) and the GI50 (Malme-3M) was 14.9 µM (inactive).

For `Cc1c2oc3c(C)ccc(C(=O)NC4C(=O)NC(C(C)C)C(=O)N5CCCC5C(=O)N(C)CC(=O)N(C)C(Cc5ccc(O)cc5)C(=O)OC4C)c3nc-2c(C(=O)NC2C(=O)NC(C(C)C)C(=O)N3CCCC3C(=O)N(C)CC(=O)N(C)C(Cc3ccc(O)cc3)C(=O)OC2C)c(N)c1=O` (stereo not given) (I: TVP[Sar][NMeY] / II: TVP[Sar][NMeY]; ester I:1-I:C, II:1-II:C; linker I:N-II:N via Actinocin(9to1); configuration not given here), the GI50 (KM12) was 13.2 nM (active) and 17.1 nM (active), the GI50 (RPMI-8226) was 8.59 nM (active) and 7.03 nM (active) and the GI50 (Hs-578T) was 3.71 nM (active) and 4.25 nM (active). The GI50 (NCI-H226) was 20.6 nM (active) and 39.3 nM (active), the GI50 (HL-60) was 4.3 nM (active) and 5.39 nM (active) and the GI50 (OVCAR-4) was 43 nM (active) and 42.6 nM (active). The GI50 (IGROV-1) was 6.05 nM (active) and 7.46 nM (active), the GI50 (MCF7) was 1.89 nM (active) and 2.16 nM (active) and the GI50 (NCI-H522) was 2.25 nM (active) and 4.33 nM (active). For the same molecule, the GI50 (SF-539) was 12.4 nM (active) and 15.3 nM (active), the GI50 (SN12C) was 5.69 nM (active) and 11 nM (active) and the GI50 (SF-268) was 11 nM (active) and 17.7 nM (active). The GI50 (SK-MEL-2) was 9.06 nM (active) and 13.1 nM (active) and the GI50 (BT-549) was 15 nM (active) and 17.3 nM (active).
